Measured values taken from US20050096370A1, “Method for inhibiting tumor angiogenesis and tumor growth” (Bizbiotech Co., Ltd., priority 2003, published 2005).

Experiments:
[1] = test system: SiHa cervical carcinoma; assay: SiHa cervical carcinoma xenograft tumor growth in nude mice; format: in vivo; settings: YC-1 30 μg/g daily i.p. 2 weeks, P<0.01
Description: (§1) Male nude mice were injected subcutaneously in the flank with 5×10^6 viable Hep3B hepatoma (A), NCI-H87 gastric carcinoma (B), SiHa cervical carcinoma (C), SK-N-MC neuroblastoma (E), or Caki-I renal carcinoma (F) cells. […] Tumor size was measured over time. […] Differences between tumor sizes in the vehicle- and YC-1-treated groups for mice with Hep3B tumors were compared using ANOVA and Duncan's multiple range tests. * denotes P<0.001 relative to the control. Differences between tumor sizes in the vehicle and YC-1-treated groups for mice with other tumors (B-E) were compared using a Mann-Whitney U test. Each number beneath the error bar represents the P value of the difference relative to the control.
(§2) Male nude (BALB/cAnNC˜-nu/nu) mice were purchased from Charles River Japan Inc. (Shin-Yokohama, JAPAN). The animals were housed in a specific pathogen-free room under controlled temperature and humidity. All animal procedures were performed according to the established procedures of the Seoul National University Laboratory Animal Maintenance Manual. Eighty mice aged 7-8 weeks were injected with tumor cells for the xenograft experiments. […]
(§3) Tumors were measured every 2 or 3 days with calipers in two dimensions and the tumor volumes were calculated using the formula: Volume=axb2/2, where a is the width at the widest point of the tumor and h is the width perpendicular to a. […]

[2] = test system: Hep3B hepatoma; assay: Hep3B hepatoma xenograft tumor growth in nude mice; format: in vivo; settings: P<0.001 versus vehicle
Description: as §1, §2, §3

[3] = test system: HIF-1-regulated genes (VEGF, aldolase A, enolase 1); assay: RT-PCR of HIF-1-regulated gene mRNA in Hep3B xenografts; format: in vivo, nude mice; settings: 30 μg/g daily i.p. 2 weeks
Description: Male nude mice were injected subcutaneously in the flank with 5×10^6 viable Hep3B cells. […] After the last treatment, the mice were euthanized, the tumors removed and lysates prepared for mRNA analysis. The mRNA levels of VEGF, aldolase A, enolase 1, and β-actin were measured by semi-quantitative RT-PCR. The quality of the extracted RNAs was verified by identifying the 18S ribosomal RNA (rRNA) on a 1% denaturing agarose gel.
The quality of the extracted RNAs was verified by identifying the 18S ribosomal RNA (rRNA) on a 1% denaturing agarose gel. VEGF, aldolase A and enolase 1 mRNA levels were also lower in YC-1-treated tumors than in vehicle-treated tumors one experiment. Results are expressed as the mean and 95% confidence intervals of 4 separate experiments.

[4] = test system: Caki-1 renal carcinoma; assay: Caki-1 renal carcinoma xenograft tumor growth in nude mice; format: in vivo; settings: YC-1 30 μg/g daily i.p. 2 weeks, P<0.01
Description: as §1, §2, §3

[5] = test system: natural killer (NK) cell activity; assay: NK cell activity of splenic lymphocytes from treated mice (51Cr release from YAC-1 cells); format: in vivo, nude mice; settings: 30 μg/g daily i.p. for 2 weeks
Description: The lymphocytes were then incubated at the indicated effectontarget cell (E:T) ratios with ^51Cr-labeled YAC-1 cells (1×10^4). After 4 hours, the amount of radioactivity in the culture supernatants was measured with a gamma counter. […] Splenic lymphocytes were then isolated and tested for NK cell activity. The result is expressed as the mean of four separate experiments with 95% confidence intervals.
Splenic lymphocytes were isolated from each mouse and tested immediately for NK cell activity. The spontaneous release of ^51Cr from YAC-1 cells was usually lower than 10% of the total ^51Cr loaded. NK cell activity was calculated as follows: {(experimental release−spontaneous release)/(total release−spontaneous release)}×100. Each assay was repeated three times and the average value is the result from one experiment. Results are expressed as the mean and 95% confidence intervals of 4 separate experiments.

[6] = test system: SK-N-MC neuroblastoma; assay: SK-N-MC neuroblastoma xenograft tumor growth in nude mice; format: in vivo; settings: YC-1 30 μg/g daily i.p. 2 weeks, P<0.01
Description: as §1, §2, §3

OCc1ccc(-c2nn(Cc3ccccc3)c3ccccc23)o1 [YC-1, 3-(5′-hydroxymethyl-2′-furyl)-1-benzylindazole]
tumor size versus vehicle [1]: statistically significantly smaller
tumor volume, mean, last day of experiment ([2]; YC-1 30 μg/g daily i.p. for 2 weeks after tumors established (100-150 mm^3)): 126 mm^3
tumor volume, mean, last day of experiment ([2]; YC-1 daily i.p. for 2 weeks, started the day after tumor cell injection): 422 mm³
VEGF, aldolase A and enolase 1 mRNA levels in tumors versus vehicle [3]: lower
tumor size versus vehicle [4]: statistically significantly smaller
cytolytic activity versus vehicle-treated mice [5]: comparable
tumor size versus vehicle [6]: statistically significantly smaller
